What all share (format): in vivo, human
Assay [1] deals with clinically healthy volunteers. The assay is described as follows: Oxygen carrying capacity of plasma lipoproteins (OCCL) by catalymetry assay, one-month intake, Example 2.4. The settings on record: for Effect of regular intake on OCCL (in words): 4 weeks daily intake. As to the method:
6 healthy volunteers (HV, 42-61 years old) and 4 CAD patients, eligible for the treadmill test (age 45-59 years old) were recruited for this study. Apart from assessing changes their electrocardiogram (ECG), pulse and blood pressure, samples and level of oxygen carrying capacity of plasma lipoproteins, OCCL, from venous blood was analyzed prior to the test and within 3-4 minutes afterward. The measurement was conducted using a catalymetry assay. In short, 10 μl of citrate plasma was added to 0.98 ml cuvette of 0.05 M phosphate buffer with 0.1 mM sodium ethylenediamine tetraacetic acid (EDTA-Na), containing 10^−6 M phenazine methosulphate and 10^−4 M nitro blue tetrazolium chloride (NBT). The reaction was initiated by adding 10 μl of 10^−4 M NADH.
The difference in absorption at λ=560 nm between starting point and after 60 seconds was measured by spectroscopy. This difference was used to measure oxygen-depended reduction of NBT. The results of this reaction were compared with the control reaction where instead of plasma 10 μl of the reaction buffer was added. The difference in the reduction of NBT with the analyzed sample and the control was used to calculate the amount of O2 in added plasma lipoproteins.
In this section the effects of regular intake of validated bioactive nutraceuticals on blood OCCL and tissue oxygen saturation (StO2) was evaluated.
(§1) For this study […] clinically healthy volunteers were recruited (age 35-57 years old), 30 male and 34 female). The subjects had not taken any medication or dietary supplements prior to the experiment. The volunteers were randomized and divided into 7 groups of 8 persons each. The participants were given a one-month supply of a particular nutraceutical or pharmaceutical. […] The daily dose for each product was taken in 1 capsule with the main meal of the day. The blood and StO2 were analyzed prior the trial and after (4 weeks). OCCL was analyzed as described above.

The subject of assay [2] is clinically healthy volunteers. Kind of assay: Tissue oxygen saturation (StO2) by near-infrared spectroscopy with stagnant ischemia, Example 2.4. Conditions: for StO2: area under hyperemic curve post occlusion; for Effect of regular intake on StO2 / peripheral tissue oxygenation (in words): 4 weeks daily intake. On the procedure:
as §1
Thenar eminence and forearm muscles of the patients were used as a tissue target for the assessment of StO2, or combined level of oxygenated hemoglobin and myoglobin. StO2 was assessed by continuous wavelength near-infrared spectroscopy, NIRS, with wide-gap second-derivative (In Spectra, Hutchinson Technology, MN, USA), as known in the art. The measurements were taken at different time points. The recording was initiated after 15 min of rest in a supine position, before occlusion of the brachial artery. It was then continued during stagnant ischemia induced by rapidly inflating a cuff to 50 mm Hg above systolic BP. The ischemia lasted for 3 min, and the recording period lasted for an additional 5 min, until StO2 was stabilized
The area under the hyperemic curve, AUC, of the recorded signal for the settling time in the post occlusion period was then calculated in AUC mm, or % O2/min. All body and vascular parameters were recorded in the morning between 8 and 10 a.m.

The test system of assay [3] is clinically healthy volunteers. The assay is described as follows: Blood LDL concentration, one-month intake, Example 2.4.
Text: Since oxygen solubility is higher in lipids than in aqueous media, it was interesting to examine a possible link between changes in OCCL and lipoprotein concentration in blood.
as §1

Setting [4] is: 4 w, daily dose in 1 capsule with main meal.
[5] abbreviates: 0 w (prior the trial), 8 per group.

This is an account of results in patent publication US20250003994A1, “DEVICE AND METHOD FOR TREATING TISSUE OXYGEN DEFICIENT CONDITIONS” (IP SCIENCE LIMITED, priority 2021, published 2025).

`COC1=C(OC)C(=O)C(C/C=C(\C)CC/C=C(\C)CC/C=C(\C)CC/C=C(\C)CC/C=C(\C)CC/C=C(\C)CC/C=C(\C)CC/C=C(\C)CC/C=C(\C)CCC=C(C)C)=C(C)C1=O` [Coenzyme Q10]: the OCCL in assay [1] (0 w (prior the trial)) is listed as 505 ± 66 ΔE at λ = 560 nm × 10^3; in assay [1] (setting [4]), 593 ± 64 ΔE at λ = 560 nm × 10^3. In addition, the “Effect of regular intake on OCCL (in words)” value (“Effect … on OCCL (in words)” below) in assay [1] is “increase in OCCL”. Further, the StO2 in assay [2] (0 w (prior the trial)) turned out to be 75.0 ± 7.4 AUC mm; in assay [2] (setting [4]), 84.0 ± 8.5 AUC mm. For the same molecule, the “Effect of regular intake on StO2 / peripheral tissue oxygenation (in words)” value in assay [2] is reported as “significant improvement of peripheral tissue oxygenation”. The LDL was determined as 143 ± 5.7 mg/dL in assay [3] (setting [5]) and 140 ± 4.2 mg/dL in assay [3] (setting [4]).
With `CCC(C)(C)C(=O)O[C@H]1C[C@@H](C)C=C2C=C[C@H](C)[C@H](CC[C@@H]3C[C@@H](O)CC(=O)O3)[C@H]21` [Simvastatin, reference compound], the OCCL in assay [1] (0 w (prior the trial)) is on record as 451 ± 51 ΔE at λ = 560 nm × 10^3; in assay [1] (setting [4]), 504 ± 53 ΔE at λ = 560 nm × 10^3. The values for the StO2 in assay [2] (0 w (prior the trial)) and in assay [2] (setting [4]) were 70 ± 0.72 AUC mm and 73 ± 0.81 AUC mm, respectively.
With `C=C1CC[C@H](O)C/C1=C/C=C1\CCC[C@]2(C)[C@@H]([C@H](C)CCCC(C)C)CC[C@@H]12` [Vitamin D3], the OCCL is recorded as 412 ± 48 ΔE at λ = 560 nm × 10^3 in assay [1] (0 w (prior the trial)) and 443 ± 51 ΔE at λ = 560 nm × 10^3 in assay [1] (setting [4]). For the same molecule, the “Effect … on OCCL (in words)” value in assay [1] is reported as “did not affect”. Moreover, the StO2 amounted to 66.8 ± 6.0 AUC mm in assay [2] (0 w (prior the trial)) and 71.2 ± 6.8 AUC mm in assay [2] (setting [4]). Further, the “Effect of regular intake on StO2 / peripheral tissue oxygenation (in words)” value in assay [2] was “did not affect”. The LDL in assay [3] (setting [5]) was determined as 156 ± 8.4 mg/dL; in assay [3] (setting [4]) it was 144 ± 5.9 mg/dL.
As for `CC/C=C\C/C=C\C/C=C\C/C=C\C/C=C\C/C=C\CCC(=O)O` [DHA Omega 3], the OCCL is recorded as 626 ± 34 ΔE at λ = 560 nm × 10^3 in assay [1] (0 w (prior the trial)) and 639 ± 42 ΔE at λ = 560 nm × 10^3 in assay [1] (setting [4]). In assay [1], the “Effect … on OCCL (in words)” value is on record as “did not affect”. Moreover, the StO2 was 74 ± 0.71 AUC mm in assay [2] (0 w (prior the trial)) and 76 ± 0.92 AUC mm in assay [2] (setting [4]). In addition, the “Effect of regular intake on StO2 / peripheral tissue oxygenation (in words)” value in assay [2] is listed as “did not affect”. Besides, the LDL stood at 155 ± 9.2 mg/dL in assay [3] (setting [5]) and 154 ± 7.5 mg/dL in assay [3] (setting [4]).
As for `CC1=C(/C=C/C(C)=C/C=C/C(C)=C/C=C/C=C(C)/C=C/C=C(C)/C=C/C2=C(C)C(=O)[C@@H](O)CC2(C)C)C(C)(C)C[C@H](O)C1=O` [Astaxanthin], the OCCL in assay [1] (0 w (prior the trial)) is on record as 539 ± 52 ΔE at λ = 560 nm × 10^3; in assay [1] (setting [4]) it was 770 ± 57 ΔE at λ = 560 nm × 10^3. For the same molecule, the StO2 turned out to be 77 ± 0.74 AUC mm in assay [2] (0 w (prior the trial)) and 87 ± 0.84 AUC mm in assay [2] (setting [4]). Also, the LDL in assay [3] (setting [5]) is listed as 153 ± 7.3 mg/dL; in assay [3] (setting [4]), 151 ± 6.2 mg/dL.
For the molecule `CC(C)=CCC/C(C)=C/C=C/C(C)=C/C=C/C(C)=C/C=C/C=C(C)/C=C/C=C(C)/C=C/C=C(\C)CCC=C(C)C` [Lycopene], the OCCL is listed as 648 ± 41 ΔE at λ = 560 nm × 10^3 in assay [1] (0 w (prior the trial)) and 786 ± 39 ΔE at λ = 560 nm × 10^3 in assay [1] (setting [4]). Besides, the StO2 in assay [2] (0 w (prior the trial)) was found to be 75 ± 0.73 AUC mm; in assay [2] (setting [4]), 85 ± 0.61 AUC mm. Besides, the LDL amounted to 156 ± 6.1 mg/dL in assay [3] (setting [5]) and 135 ± 7.0 mg/dL in assay [3] (setting [4]).
